Reference: ChEMBL document CHEMBL6177952, “Exploring chloro-isoxazole compounds inspired on tetrahydrofuran neolignans as promising antileishmanial agents” (Eur J Med Chem, 2025)

Columns and labels:
Leishmania amazonensis [1] = test: Antiparasitic activity against Leishmania amazonensis promastigotes incubated for 24 hrs; type: functional, organism-based
[2] = Mutagenicity in Salmonella typhimurium TA98 assessed as number of revertant colonies per plate at 10 microg/ml by Ames test; type: toxicity; conditions: salmonella enterica subsp. enterica serovar typhimurium; dose 10 µg/ml
[3] = Selectivity ratio of CC50 for cytotoxicity against BALB/c mouse Peritoneal macrophage assessed as inhibition of cell growth to IC50 for antileishmanial activity against leishmania amazonensis IFLA/BR/1967/PH8 intracellular amastigote infected in mouse Peritoneal macrophage; type: toxicity, cell-based; conditions: peritoneal macrophages, read-out: Ratio CC50/IC50
Leishmania amazonensis [4] = test: Antileishmanial activity against leishmania amazonensis IFLA/BR/1967/PH8 intracellular amastigote infected in mouse Peritoneal macrophage incubated for 24 hrs; type: functional, organism-based; conditions: IFLA/BR/1967/PH8, Peritoneal macrophage
[5] = Cytotoxicity against BALB/c mouse Peritoneal macrophage assessed as inhibition of cell growth incubated for 48 hrs by MTT assay; type: toxicity, cell-based; conditions: peritoneal macrophages
Leishmania amazonensis [6] = test: Antileishmanial activity against leishmania amazonensis IFLA/BR/1967/PH8 promastigotes infected in mouse Peritoneal macrophage incubated for 24 hrs; type: functional, organism-based; conditions: IFLA/BR/1967/PH8, Peritoneal macrophage
[7] = Selectivity ratio of CC50 for cytotoxicity against BALB/c mouse Peritoneal macrophage assessed as inhibition of cell growth to IC50 for antileishmanial activity against leishmania amazonensis IFLA/BR/1967/PH8 promastigotes infected in mouse Peritoneal macrophage; type: toxicity, cell-based; conditions: peritoneal macrophages, read-out: Ratio CC50/IC50
Leishmania amazonensis [8] = test: Antileishmanial activity against Leishmania amazonensis promastigotes assessed as late apoptotic parasites at 10.4 uM incubated for 72 hrs by Annexin V/7-AAD staining based flow cytometry analysis relative to control; type: functional
Leishmania amazonensis [9] = test: Antileishmanial activity against Leishmania amazonensis promastigotes assessed as viable apoptotic parasites at 10.4 uM incubated for 72 hrs by Annexin V/7-AAD staining based flow cytometry analysis relative to control; type: functional
Leishmania amazonensis [10] = test: Antileishmanial activity against Leishmania amazonensis promastigotes assessed as viable apoptotic parasites at 10.4 uM incubated for 48 hrs by Annexin V/7-AAD staining based flow cytometry analysis relative to control; type: functional
Leishmania amazonensis [11] = test: Antileishmanial activity against Leishmania amazonensis promastigotes assessed as necrotic parasites at 10.4 uM incubated for 24 hrs by Annexin V/7-AAD staining based flow cytometry analysis relative to control; type: functional
Leishmania amazonensis [12] = test: Antileishmanial activity against Leishmania amazonensis promastigotes assessed as early apoptotic parasites at 10.4 uM incubated for 72 hrs by Annexin V/7-AAD staining based flow cytometry analysis relative to control; type: functional
Leishmania amazonensis [13] = test: Antileishmanial activity against Leishmania amazonensis promastigotes assessed as necrotic parasites at 10.4 uM incubated for 48 hrs by Annexin V/7-AAD staining based flow cytometry analysis relative to control; type: functional
Leishmania amazonensis [14] = test: Antileishmanial activity against Leishmania amazonensis promastigotes assessed as viable apoptotic parasites at 10.4 uM incubated for 24 hrs by Annexin V/7-AAD staining based flow cytometry analysis relative to control; type: functional
Leishmania amazonensis [15] = test: Antileishmanial activity against Leishmania amazonensis promastigotes assessed as late apoptotic parasites at 10.4 uM incubated for 48 hrs by Annexin V/7-AAD staining based flow cytometry analysis relative to control; type: functional
Leishmania amazonensis [16] = test: Antileishmanial activity against Leishmania amazonensis promastigotes assessed as late apoptotic parasites at 10.4 uM incubated for 24 hrs by Annexin V/7-AAD staining based flow cytometry analysis relative to control; type: functional
Leishmania amazonensis [17] = test: Antileishmanial activity against Leishmania amazonensis promastigotes assessed as early apoptotic parasites at 10.4 uM incubated for 48 hrs by Annexin V/7-AAD staining based flow cytometry analysis relative to control; type: functional
Leishmania amazonensis [18] = test: Antileishmanial activity against Leishmania amazonensis promastigotes assessed as necrotic parasites at 10.4 uM incubated for 72 hrs by Annexin V/7-AAD staining based flow cytometry analysis relative to control; type: functional
Leishmania amazonensis [19] = test: Antileishmanial activity against Leishmania amazonensis promastigotes assessed as early apoptotic parasites at 10.4 uM incubated for 24 hrs by Annexin V/7-AAD staining based flow cytometry analysis relative to control; type: functional
Leishmania amazonensis [20] = test: Antileishmanial activity against Leishmania amazonensis promastigotes; type: functional, organism-based
Leishmania amazonensis [21] = test: Antileishmanial activity against leishmania amazonensis infected in BALB/c mouse assessed as reduction parasite load in footpad; type: functional; parameters: scale not given: the % may be the effect or the level left
Leishmania amazonensis [22] = test: Antileishmanial activity against leishmania amazonensis assessed as reduction in parasite growth; type: functional, organism-based
[23] = Mutagenicity in Salmonella typhimurium TA98 assessed as number of revertant colonies per plate at 2.5 microg/ml in presence of S9 fraction by Ames test; type: toxicity, subcellular; conditions: salmonella enterica subsp. enterica serovar typhimurium, dose 2.5 µg/ml
[24] = Mutagenicity in Salmonella typhimurium TA100 assessed as number of revertant colonies per plate at 2.5 microg/ml in presence of S9 fraction by Ames test; type: toxicity, subcellular; conditions: salmonella enterica subsp. enterica serovar typhimurium, dose 2.5 µg/ml
Leishmania amazonensis [25] = test: Antileishmanial activity against leishmania amazonensis IFLA/BR/1967/PH8 promastigotes assessed as reduction in parasite growth measured for 72 hrs; type: functional, organism-based; conditions: IFLA/BR/1967/PH8, 72 h
Leishmania amazonensis [26] = test: Antileishmanial activity against leishmania amazonensis IFLA/BR/1967/PH8 amastigote measured for 72 hrs; type: functional, organism-based; conditions: IFLA/BR/1967/PH8, 72 h
Leishmania amazonensis [27] = test: Potency index, ratio of pentamidine IC50 to test compound IC50 for antileishmanial activity against leishmania amazonensis IFLA/BR/1967/PH8 intracellular amastigote infected in mouse Peritoneal macrophage incubated for 24 hrs; type: functional
Leishmania amazonensis [28] = test: Antileishmanial activity against leishmania amazonensis IFLA/BR/1967/PH8 intracellular amastigotes infected in mouse Peritoneal macrophage assessed as reduction in parasite growth measured for 24 hrs; type: functional, organism-based; conditions: IFLA/BR/1967/PH8, Peritoneal macrophage

Row | Compound | selectivity ratio [3] | IC50 (Leishmania amazonensis [4]) [µM] | CC50 at 48 h [5] [µM] | IC50 (Leishmania amazonensis [6]) [µM] | selectivity ratio [7] | also measured
1 | COc1cc(-c2cn(-c3cc(OC)c(OC)c(OC)c3)nn2)cc(OC)c1OC |  |  |  |  |  | IC50 (Leishmania amazonensis [1]): > 200 µM
2 | Nc1ccc([N+](=O)[O-])cc1N |  |  |  |  |  | Activity [2]: 253 µg
3 | COc1cc(-c2cc(-c3cc(OC)c(OC)c(OC)c3Cl)no2)cc(OC)c1OC | 0.3 | 21.8 | 7 | 74.4 | 0.1 | 
4 | C[C@@H]1[C@H](O)[C@@H](C)/C=C/C=C/C=C/C=C/C=C/C=C/C=C/[C@H](O[C@@H]2O[C@H](C)[C@@H](O)[C@H](N)[C@@H]2O)C[C@@H]2O[C@](O)(C[C@@H](O)C[C@@H](O)[C@H](O)CC[C@@H](O)C[C@@H](O)CC(=O)O[C@H]1C)C[C@H](O)[C@H]2C(=O)O [AMPHOTERICIN B] |  | 2 | 12.8 | 10.4 |  | Activity (Leishmania amazonensis [8]): 1.5%; Activity (Leishmania amazonensis [9]): 95.1%; Activity (Leishmania amazonensis [10]): 97.1%; Activity (Leishmania amazonensis [11]): 0.3%; Activity (Leishmania amazonensis [12]): 0.8%; Activity (Leishmania amazonensis [13]): 0.6%; Activity (Leishmania amazonensis [14]): 98.7%; Activity (Leishmania amazonensis [15]): 0.6%; Activity (Leishmania amazonensis [16]): 0.3%; Activity (Leishmania amazonensis [17]): 1.6%; Activity (Leishmania amazonensis [18]): 2.5%; Activity (Leishmania amazonensis [19]): 0.6%
5 | COc1ccc(-c2cc(-c3cc(OC)c(OC)c(OC)c3Cl)on2)cc1 | 4.9 | 12.5 | 60.7 | 45.8 | 1.3 | 
6 | COc1ccc(-c2cc(-c3cc(OC)c(OC)c(OC)c3Cl)on2)cc1OC | 4.1 | 11.4 | 47.2 | 91.8 | 0.5 | 
7 | COc1ccc(-c2cn(-c3cc(OC)c(OC)c(OC)c3)nn2)cc1OC |  |  |  |  |  | IC50 (Leishmania amazonensis [20]): 194 µM
8 | COc1cc(OC)cc(-c2cc(-c3cc(OC)c(OC)c(OC)c3Cl)on2)c1 | 11.3 | 7.3 | 82.6 | 31.2 | 2.6 | 
9 | COc1cc(-c2cc(-c3cc(OC)c(OC)c(OC)c3)on2)cc(OC)c1OC |  |  |  |  |  | IC50 (Leishmania amazonensis [1]): 17.6 µM
10 | COc1ccc(-c2cc(-c3cc(OC)c(OC)c(OC)c3)on2)cc1OC | 21 | 1.6 |  |  |  | Activity (Leishmania amazonensis [21]): 98.5%; IC50 (Leishmania amazonensis [22]): 20.2 µM
11 | COc1cc(OC)cc(-c2cc(-c3cc(OC)c(OC)c(OC)c3Cl)no2)c1 | 1.5 | 19.3 | 28 | 71.5 | 0.4 | 
12 | Nc1ccc2cc3ccccc3cc2c1 [2-AMINOANTHRACENE] |  |  |  |  |  | Activity [23]: 231 revertants/plate; revertant count [24]: 963 revertants/plate
13 | N=C(N)c1ccc(OCCCCCOc2ccc(C(=N)N)cc2)cc1 [PENTAMIDINE] | 1.4 | 16.3 | 23.2 | 1.3 | 17.8 | 
14 | COc1cc(-n2cc(-c3ccc4c(c3)OCO4)nn2)cc(OC)c1OC | 1 | 23.4 | 23.5 | 12 | 1.9 | IC50 (Leishmania amazonensis [25]): 7.2 µM
15 | COc1ccc(-c2cc(-c3cc(OC)c(OC)c(OC)c3Cl)no2)cc1 | 0.8 | 10.9 | 9.6 | 9 | 1 | 
16 | COc1cc(-c2cc(-c3ccc4c(c3)OCO4)no2)cc(OC)c1OC |  |  |  |  |  | IC50 (Leishmania amazonensis [26]): 3.3 µM
17 | COc1ccc(-c2cc(-c3cc(OC)c(OC)c(OC)c3)no2)cc1OC |  |  |  |  |  | IC50 (Leishmania amazonensis [20]): 19.4 µM
18 | COc1ccc(-c2cc(-c3cc(OC)c(OC)c(OC)c3Cl)no2)cc1OC | 0.8 | 31.7 | 26.7 | 88 | 0.3 | 
19 | COc1cc(-c2cc(-c3ccc4c(c3)OCO4)no2)c(Cl)c(OC)c1OC | 3.3 | 10.3 | 33.7 | 103 | 0.3 | Ratio IC50 (Leishmania amazonensis [27]): <=7
20 | COc1cc(-c2cc(-c3cc(OC)c(OC)c(OC)c3Cl)on2)cc(OC)c1OC | 0.2 | 12.7 | 2.7 | 33.8 | 0.07 | 
21 | COc1ccc(-n2cc(-c3cc(OC)c(OC)c(OC)c3)nn2)cc1OC |  |  |  |  |  | IC50 (Leishmania amazonensis [28]): 122 µM; IC50 (Leishmania amazonensis [20]): 122 µM
22 | COc1cccc2c1C(=O)c1c(O)c3c(c(O)c1C2=O)C[C@@](O)(C(=O)CO)C[C@@H]3O[C@H]1C[C@H](N)[C@H](O)[C@H](C)O1 [DOXORUBICIN] |  |  | 2.4 |  |  | 
